From ChEMBL document CHEMBL1681705, “Optimisation of ITK inhibitors through successive iterative design cycles” (Bioorg Med Chem Lett, 2011)

What was measured:
[1] = cells; conditions: Homo sapiens, T-cell
Description: Antiinflammatory activity in human CD4+ T cell assessed as inhibition of anti-CD3/anti-CD28-induced IL-2 production treated 30 mins before anti-CD3/anti-CD28 challenge measured after 48 hrs by electro-chemiluminescence assay

[2] = target: T1, Tyrosine-protein kinase ITK/TSK (Homo sapiens, UniProt Q08881); test: Inhibition of recombinant GST-tagged full-length ITK expressed in baculovirus expression system after 30 mins by scintillation proximity assay
T1 sequence (Q08881 whole entry): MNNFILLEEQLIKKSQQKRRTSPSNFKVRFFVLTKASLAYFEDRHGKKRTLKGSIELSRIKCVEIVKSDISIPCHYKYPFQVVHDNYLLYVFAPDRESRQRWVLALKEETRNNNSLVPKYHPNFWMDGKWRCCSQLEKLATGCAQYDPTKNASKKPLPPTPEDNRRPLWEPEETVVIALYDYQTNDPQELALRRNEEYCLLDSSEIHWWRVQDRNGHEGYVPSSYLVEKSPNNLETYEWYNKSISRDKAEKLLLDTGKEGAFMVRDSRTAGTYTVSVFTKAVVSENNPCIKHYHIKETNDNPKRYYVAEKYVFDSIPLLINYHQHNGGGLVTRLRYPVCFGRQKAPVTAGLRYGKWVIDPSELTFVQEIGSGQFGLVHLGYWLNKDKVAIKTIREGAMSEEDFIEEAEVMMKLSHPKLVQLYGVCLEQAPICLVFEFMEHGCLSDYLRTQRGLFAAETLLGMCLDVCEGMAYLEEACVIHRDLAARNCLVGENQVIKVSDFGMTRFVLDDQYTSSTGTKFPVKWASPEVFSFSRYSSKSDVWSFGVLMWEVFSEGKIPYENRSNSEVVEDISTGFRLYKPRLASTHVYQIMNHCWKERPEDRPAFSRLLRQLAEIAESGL

| IC50 [1] | IC50 [2] | Structure (SMILES) |
| --- | --- | --- |
| 600 nM | – | Cc1ccc2cc(-c3n[nH]c4ccc(NC(=O)CN(C)C)cc34)[nH]c2c1 |
| 900 nM | – | COc1cccc(S(=O)(=O)Nc2ccc3[nH]nc(-c4cc5ccc(C)cc5[nH]4)c3c2)c1 |
| – | 310 nM | CN(c1ccccc1)c1ccc2cc(-c3n[nH]c4ccccc34)[nH]c2c1 |
| – | 210 nM | c1ccc(Cc2ccc3cc(-c4n[nH]c5cccnc45)[nH]c3c2)cc1 |
| – | 530 nM | Cc1ccc2cc(-c3n[nH]c4ccc(NCc5ccccc5)cc34)[nH]c2c1 |
| – | > 50000 nM | Cc1ccc2cc(-c3n[nH]c4cc(NC(=O)c5ccccc5)ccc34)[nH]c2c1 |
| – | 310 nM | Cc1ccc2cc(-c3n[nH]c4ccc(NC(=O)NCc5ccco5)cc34)[nH]c2c1 |
| 400 nM | 36 nM | Cc1ccc2cc(-c3n[nH]c4ccc(NS(C)(=O)=O)cc34)[nH]c2c1 |
| 400 nM | – | Cc1ccc2cc(-c3n[nH]c4ccc(NS(=O)(=O)c5ccccc5)cc34)[nH]c2c1 |
| – | 730 nM | Cc1ccc2cc(-c3n[nH]c4ccc(NC(=O)Nc5ccccc5)cc34)[nH]c2c1 |
| 1000 nM | – | Cc1ccc2cc(-c3n[nH]c4ccc(NS(=O)(=O)c5ccccc5F)cc34)[nH]c2c1 |
| – | 860 nM | Cc1ccc2cc(-c3n[nH]c4ccc(NCC(C)C)cc34)[nH]c2c1 |
| – | 750 nM | Cc1ccc2cc(-c3n[nH]c4ccc(NC(=O)NCc5ccccc5)cc34)[nH]c2c1 |
| – | 20 nM | Cn1cncc1CNC(=O)c1ccc2cc(-c3n[nH]c4ccccc34)[nH]c2c1 |
| 500 nM | – | COCC(=O)Nc1ccc2[nH]nc(-c3cc4ccc(OC)cc4[nH]3)c2c1 |
| 800 nM | – | Cc1ccc2cc(-c3n[nH]c4ccc(NS(=O)(=O)c5cccc(F)c5)cc34)[nH]c2c1 |

| IC50 [1] | IC50 [2] | Structure (SMILES) |
| --- | --- | --- |
| – | 260 nM | Cc1ccc2cc(-c3n[nH]c4ccc(NC(=O)C5CCOCC5)cc34)[nH]c2c1 |
| 300 nM | 72 nM | Cc1ccc2cc(-c3n[nH]c4ccc(NC(=O)Nc5c(C)noc5C)cc34)[nH]c2c1 |
| 350 nM | 30 nM | Cc1ccc2cc(-c3n[nH]c4ccc(NC5CCN(Cc6ccccc6)C5)cc34)[nH]c2c1 (stereo not given) |
| – | 530 nM | Cc1ccc2cc(-c3n[nH]c4ccc(NC(=O)c5ccco5)cc34)[nH]c2c1 |
| – | 110 nM | CN(Cc1ccco1)C(=O)c1ccc2cc(-c3n[nH]c4ccccc34)[nH]c2c1 |
| 2100 nM | – | CCN(CC)C(=O)c1ccc2cc(-c3n[nH]c4ccccc34)[nH]c2c1 |
| 400 nM | 26 nM | Cc1ccc2cc(-c3n[nH]c4ccc(NS(=O)(=O)c5cn(C)cn5)cc34)[nH]c2c1 |
| 600 nM | 83 nM | CCNC(=O)Nc1ccc2[nH]nc(-c3cc4ccc(C)cc4[nH]3)c2c1 |
| – | 620 nM | Cc1ccc2cc(-c3n[nH]c4ccc(NC5CCC5)cc34)[nH]c2c1 |
| 1000 nM | – | CC(=O)Nc1ccc2[nH]nc(-c3cc4ccc(C)cc4[nH]3)c2c1 |
| 9400 nM | 60 nM | CN(Cc1ccccc1)C(=O)c1ccc2cc(-c3n[nH]c4ccccc34)[nH]c2c1 |
| 4100 nM | – | O=C(NCc1ccccc1)c1ccc2cc(-c3n[nH]c4ccccc34)[nH]c2c1 |
| 3200 nM | 780 nM | Cc1ccc2cc(-c3n[nH]c4ccc(NC(=O)NC5CCCCC5)cc34)[nH]c2c1 |
| 700 nM | – | COc1ccc(S(=O)(=O)Nc2ccc3[nH]nc(-c4cc5ccc(C)cc5[nH]4)c3c2)cc1 |
| 2900 nM | – | Cc1ccc2cc(-c3n[nH]c4ccc(NS(=O)(=O)c5ccc(F)cc5)cc34)[nH]c2c1 |

The remaining lines, values behind:

| Structure (SMILES) | IC50 [1] | IC50 [2] |
| --- | --- | --- |
| c1cnc2c(-c3cc4ccc(CC5CCCCC5)cc4[nH]3)n[nH]c2c1 | – | 690 nM |
| CC(C)CN(C)C(=O)c1ccc2cc(-c3n[nH]c4ccccc34)[nH]c2c1 | 1600 nM | – |
| Cc1ccc2cc(-c3n[nH]c4ccc(NS(=O)(=O)c5sc(C)nc5C)cc34)[nH]c2c1 | 2000 nM | 190 nM |
| COCCN(C)C(=O)c1ccc2cc(-c3n[nH]c4ccccc34)[nH]c2c1 | 2000 nM | 70 nM |
| CCC(=O)Cc1ccc2cc(-c3n[nH]c4cccnc34)[nH]c2c1 | 1100 nM | 100 nM |
| O=C(NCC1CCCCC1)c1ccc2cc(-c3n[nH]c4ccccc34)[nH]c2c1 | 9500 nM | – |
| COCCNc1ccc2cc(-c3n[nH]c4ccccc34)[nH]c2c1 | 1200 nM | 260 nM |
| Cc1ccc2cc(-c3n[nH]c4ccc(NC5CCN(C)CC5)cc34)[nH]c2c1 | 120 nM | – |
| NC(=O)Cc1ccc2cc(-c3n[nH]c4cccnc34)[nH]c2c1 | 1000 nM | 100 nM |
| COCC#Cc1ccc2cc(-c3n[nH]c4cccnc34)[nH]c2c1 | – | 280 nM |
| COCCc1ccc2cc(-c3n[nH]c4cccnc34)[nH]c2c1 | 600 nM | 70 nM |
| c1cnc2c(-c3cc4ccc(CC5CCC5)cc4[nH]3)n[nH]c2c1 | – | 350 nM |
| c1ccc2c(-c3cc4ccc(N5CCOCC5)cc4[nH]3)n[nH]c2c1 | 1200 nM | 120 nM |
| Cc1ccc2cc(-c3n[nH]c4ccc(NS(=O)(=O)c5c(C)noc5C)cc34)[nH]c2c1 | 500 nM | 130 nM |
| C(#Cc1ccc2cc(-c3n[nH]c4cccnc34)[nH]c2c1)CCc1cccnc1 | – | 500 nM |
| Cc1ccc2cc(-c3n[nH]c4ccc(NS(=O)(=O)c5c(C)nn(C)c5C)cc34)[nH]c2c1 | 1000 nM | 85 nM |
| Cc1ccc2cc(-c3n[nH]c4ccc(NCC5CCCCC5)cc34)[nH]c2c1 | – | 1700 nM |
| CN(C)CCc1ccc2cc(-c3n[nH]c4cccnc34)[nH]c2c1 | – | 1000 nM |
| CC(=O)N1CCC(Nc2ccc3[nH]nc(-c4cc5ccc(C)cc5[nH]4)c3c2)CC1 | – | 370 nM |
| CN(C)CC#Cc1ccc2cc(-c3n[nH]c4cccnc34)[nH]c2c1 | – | 110 nM |
| Cc1ccc2cc(-c3n[nH]c4cc(NC(=O)C5CCCCC5)ccc34)[nH]c2c1 | – | > 50000 nM |
| Cc1ccc2cc(-c3n[nH]c4ccc(NC5CCNCC5)cc34)[nH]c2c1 | 90 nM | – |
| c1ccc2c(-c3cc4ccc(NCC5CCCCC5)cc4[nH]3)n[nH]c2c1 | 3800 nM | – |
